Reference: patent US20260116868A1 (Arcus Biosciences, Inc., priority 2023, published 2026)

target: T1, Cbl-b (Homo sapiens, UniProt Q13191); assay: Cbl-b probe displacement HTRF binding assay; conditions: 0.4 nM Cbl-b, 150 nM BODIPY probe
T1 construct: biotin (biotinylated protein)
Summary of the method: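 Compound competes with BODIPY probe (150 nM) for biotinylated Cbl-b (0.4 nM) in HEPES/NaCl/Triton/TCEP/BSA buffer; 60 min preincubation, 15 min with probe, room temperature. Tb-streptavidin HTRF read; % displacement vs DMSO and no-protein controls, IC50 from four-parameter fit.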

T1 sequence (Q13191 whole entry, species assumed): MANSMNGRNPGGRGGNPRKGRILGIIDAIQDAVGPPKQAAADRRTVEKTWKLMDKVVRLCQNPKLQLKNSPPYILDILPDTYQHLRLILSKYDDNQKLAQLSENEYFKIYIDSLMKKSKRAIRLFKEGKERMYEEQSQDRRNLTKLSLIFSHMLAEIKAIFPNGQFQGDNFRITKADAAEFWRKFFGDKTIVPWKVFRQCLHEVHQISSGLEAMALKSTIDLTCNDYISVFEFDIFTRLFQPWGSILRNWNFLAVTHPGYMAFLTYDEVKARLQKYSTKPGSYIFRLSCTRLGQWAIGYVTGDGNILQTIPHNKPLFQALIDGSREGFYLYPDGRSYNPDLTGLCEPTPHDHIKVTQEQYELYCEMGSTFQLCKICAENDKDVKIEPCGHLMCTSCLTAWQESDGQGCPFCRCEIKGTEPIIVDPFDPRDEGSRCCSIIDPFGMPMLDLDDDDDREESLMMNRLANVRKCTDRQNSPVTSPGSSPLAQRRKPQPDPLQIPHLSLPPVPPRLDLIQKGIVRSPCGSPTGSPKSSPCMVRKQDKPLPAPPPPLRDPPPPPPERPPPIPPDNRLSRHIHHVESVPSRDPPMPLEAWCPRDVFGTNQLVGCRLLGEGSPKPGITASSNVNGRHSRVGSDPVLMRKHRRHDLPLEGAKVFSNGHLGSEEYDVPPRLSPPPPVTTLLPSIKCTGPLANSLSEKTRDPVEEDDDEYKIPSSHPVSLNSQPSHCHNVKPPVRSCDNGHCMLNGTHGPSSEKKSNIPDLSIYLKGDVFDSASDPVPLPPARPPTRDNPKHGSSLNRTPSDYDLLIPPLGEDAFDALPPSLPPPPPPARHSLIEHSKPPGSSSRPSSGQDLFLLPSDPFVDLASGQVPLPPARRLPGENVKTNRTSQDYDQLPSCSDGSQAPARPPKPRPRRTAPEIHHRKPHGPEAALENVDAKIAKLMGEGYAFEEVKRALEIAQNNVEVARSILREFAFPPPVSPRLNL

IC50, < 100 nM:
CCOc1cc(-c2ccc(Cl)cc2C(=O)N2CC(F)(F)C2)cc(NC(=O)c2cc(CNCC3(F)CCC3)cn(C3CC3)c2=O)n1 [Example 121, N-(4-{4-chloro-2-[(3,3-difluoro-1-azetidinyl)carbonyl]phenyl}-6-ethoxy-2-pyridyl)-1-cyclopropyl-5-({[(1-fluorocyclobutyl)methyl]amino}methyl)-2-oxo-1,2-dihydronicotinamide]
CC(C)Nc1cc(-c2ccc(OC(F)F)cc2C(=O)N2CC(F)C2)cc(NC(=O)c2cc(CN[C@@H](C)C3CCC3)cn(C)c2=O)n1 [Example 278]
CO[C@@H](C)CNCc1cc(C(=O)Nc2cc(-c3c(F)cc(C#N)cc3C(=O)N3CC(F)(F)C3)cc(C3CC3)n2)c(=O)n(C)c1 [Example 228]
O=C(Nc1cc(-c2ccc(Cl)cc2C(=O)N2CC(F)(F)C2)cc(C2CC2)n1)c1cc(CNCC2CCC2)cn(C2CC2)c1=O [Example 370]
N#Cc1ccc(-c2cc(NC(=O)c3cc(CNCC4CCC4)cn(C4CC4)c3=O)nc(C3CC3)c2)c(C(=O)N2CC(F)(F)C2)c1 [Example 355]
O=C(Nc1cc(-c2ccc(Cl)cc2C(=O)N2CC(F)(F)C2)cc(C2CC2)n1)c1cc(CNCC2CC2)cn(C2CC2)c1=O [Example 406]
C[C@H](NCc1cc(C(=O)Nc2cc(-c3ccc(C#N)cc3C(=O)N3CC(F)(F)C3)cc(C3CC3)n2)c(=O)n(CC(F)(F)F)c1)C1CC1 [Example 188]
CC(NCC1CC1)c1cc(C(=O)Nc2cc(-c3ccc(C#N)cc3C(=O)N3CC(F)(F)C3)cc(C3CC3)n2)c(=O)n(C2CC2)c1 (stereo not shown) [Example 333]
COc1ccc(-c2cc(NC(=O)c3cc(CNCC(C)C)cn(C4CC4)c3=O)nc(C3CC3)c2)c(C(=O)N2CC(F)C2)c1 [Example 284]
C[C@H](NCc1cc(C(=O)Nc2cc(-c3ccc(Cl)cc3C(=O)N3CC(F)(F)C3)cc(C3CC3)n2)c(=O)n(C2CC2)c1)C1CC1 [Example 135, N-(4-{4-chloro-2-[(3,3-difluoro-1-azetidinyl)carbonyl]phenyl}-6-cyclopropyl-2-pyridyl)-1-cyclopropyl-5-{[(S)-1-cyclopropylethylamino]methyl}-2-oxo-1,2-dihydronicotinamide]
CC(C)Nc1cc(-c2c(F)cc(Cl)cc2C(=O)N2CC(F)(F)C2)cc(NC(=O)c2cc(CNC[C@@H]3CCCO3)cn(C3CC3)c2=O)n1 [Example 208]
C=CCn1cc(CN2CCC[C@H](C)C2)cc(C(=O)Nc2cccc(C3(c4nncn4C)CC(C)C3)c2)c1=O (mixture of isomers) [Example 77, N-[3-[3-methyl-1-(4-methyl-1,2,4-triazol-3-yl)cyclobutyl]phenyl]-5-[[(3S)-3-methylpiperidin-1-yl]methyl]-2-oxo-1-prop-2-enylpyridine-3-carboxamide]
COCCNCc1cc(C(=O)Nc2cc(-c3c(F)cc(Cl)cc3C(=O)N3CC(F)(F)C3)cc(C3CC3)n2)c(=O)n(C2CC2)c1 [Example 147, N-(4-{4-chloro-2-[(3,3-difluoro-1-azetidinyl)carbonyl]-6-fluorophenyl}-6-cyclopropyl-2-pyridyl)-1-cyclopropyl-5-[(2-methoxyethylamino)methyl]-2-oxo-1,2-dihydronicotinamide]
CO[C@@H](C)CNCc1cc(C(=O)Nc2cc(-c3ccc(OC(F)F)cc3C(=O)N3CC(F)C3)cc(OC(C)C)n2)c(=O)n(C2CC2)c1 [Example 252]
CC(C)Oc1cc(-c2ccc(Cl)cc2C(=O)N2CC(F)C2)cc(NC(=O)c2cc(CN[C@@H](C)C3CCC3)cn(C3CC3)c2=O)n1 [Example 256]
CC(C)Oc1cc(-c2ccc(OC(F)F)cc2C(=O)N2CC(F)(F)C2)cc(NC(=O)c2cc(CN[C@@H](C)C(C)C)cn(C3CC3)c2=O)n1 [Example 293]
